According to ChEMBL document CHEMBL1201862, “PubChem BioAssay data set” (2004):
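The compound was tested at five concentrations on cells cultured in 96-well plates, with a 48-hour exposure period. GI50: concentration for 50% inhibition of growth.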 Calls of active or inactive are those of the source. Cut-off read from the data, not from the text of the source: active = GI50 up to about 1.1 µM and inactive = higher.

Tests used:
Assay in all cases: NCI anticancer screen, dose series, 48 h
[1] = test system: 786-0
[2] = test system: A498
[3] = test system: A549
[4] = test system: BT-549
[5] = test system: CCRF-CEM
[6] = test system: HT-29
[7] = test system: KM-20L2
[8] = test system: KM12
[9] = test system: MCF7
[10] = test system: MDA-N
[11] = test system: MOLT-4
[12] = test system: SF-268
[13] = test system: SF-295
[14] = test system: SF-539
[15] = test system: SK-MEL-2
[16] = test system: SK-MEL-5
[17] = test system: SNB-19
[18] = test system: SNB-75
[19] = test system: TK-10
[20] = test system: UACC-257

SMILES	GI50 [1]	GI50 [2]	GI50 [3]	GI50 [4]	GI50 [5]	GI50 [6]	GI50 [7]	GI50 [8]	GI50 [9]	GI50 [10]	GI50 [11]	GI50 [12]	GI50 [13]	GI50 [14]	GI50 [15]	GI50 [16]	GI50 [17]	GI50 [18]	GI50 [19]	GI50 [20]
CC[C@@]1(OC(=O)C(N)CCCCN)C(=O)OCc2c1cc1n(c2=O)Cc2cc3ccccc3nc2-1 (stereo partly specified)	0.0148 µM (active)	0.0802 µM (active)	0.0274 µM (active)	0.218 µM (active)	< 0.01 µM (active)	0.133 µM (active)	0.166 µM (active)	0.35 µM (active)	0.021 µM (active)	0.167 µM (active)	< 0.01 µM (active)	0.0169 µM (active)	< 0.0109 µM (active)	0.0203 µM (active)	0.5 µM (active)	0.0377 µM (active)	0.0176 µM (active)	0.0336 µM (active)	2.55 µM (inactive)	0.143 µM (active)
COc1ccc(C(c2ccc(C(C)C)cc(OC)c2=O)c2ccc(C(C)C)cc(OC)c2=O)cc1	16.6 µM (inactive)	17.7 µM (inactive)	12 µM (inactive)	–	10.2 µM (inactive)	10.8 µM (inactive)	14.1 µM (inactive)	13.5 µM (inactive)	–	–	7.53 µM (inactive)	13.6 µM (inactive)	16.2 µM (inactive)	17 µM (inactive)	15.9 µM (inactive)	14.3 µM (inactive)	15.9 µM (inactive)	19.6 µM (inactive)	19.6 µM (inactive)	15.5 µM (inactive)
CN(C)CCNC(=O)c1cccc2cc3ccc4ccccc4c3nc12	0.0824 µM (active)	< 0.01 µM (active)	0.0226 µM (active)	–	0.0406 µM (active)	0.0516 µM (active)	0.136 µM (active)	0.148 µM (active)	–	–	0.0156 µM (active)	0.0953 µM (active)	0.0867 µM (active)	0.0811 µM (active)	0.203 µM (active)	0.137 µM (active)	0.0942 µM (active)	0.131 µM (active)	0.207 µM (active)	0.177 µM (active)
CCCCCCCCCCOC(=O)NCCC	28.1 µM (inactive)	31.7 µM (inactive)	36.6 µM (inactive)	–	18.5 µM (inactive)	21.4 µM (inactive)	22.8 µM (inactive)	36.1 µM (inactive)	–	–	17.2 µM (inactive)	29.1 µM (inactive)	38.5 µM (inactive)	59.7 µM (inactive)	16.7 µM (inactive)	23.9 µM (inactive)	34.4 µM (inactive)	49.2 µM (inactive)	34.5 µM (inactive)	30.2 µM (inactive)
Nc1ccn([C@@H]2C=C(CO)[C@@H](O)[C@H]2O)c(=O)n1	0.103 µM (active)	1.84 µM (inactive)	0.0592 µM (active)	2.06 µM (inactive)	0.0617 µM (active)	0.11 µM (active)	0.0912 µM (active)	0.143 µM (active)	0.05 µM (active)	0.0353 µM (active)	0.0501 µM (active)	0.269 µM (active)	0.155 µM (active)	0.254 µM (active)	10 µM (inactive)	1.06 µM (active)	0.244 µM (active)	2.07 µM (inactive)	1.05 µM (active)	–
Cc1ccc(S(=O)(=O)N/N=C(\c2nc3ccc([N+](=O)[O-])cc3nc2O)C(O)c2ccccc2Cl)cc1 (stereo unspecified)	> 100 µM (inactive)	> 100 µM (inactive)	> 100 µM (inactive)	–	17.5 µM (inactive)	> 100 µM (inactive)	> 100 µM (inactive)	93.8 µM (inactive)	–	–	> 100 µM (inactive)	> 100 µM (inactive)	> 100 µM (inactive)	> 100 µM (inactive)	> 100 µM (inactive)	55.3 µM (inactive)	> 100 µM (inactive)	> 100 µM (inactive)	> 100 µM (inactive)	> 100 µM (inactive)
C=CCC1(CN(C)C)CC/C(=C\c2ccc(Cl)cc2)C1=O (stereo unspecified)	38.1 µM (inactive)	37.2 µM (inactive)	59.6 µM (inactive)	–	15.9 µM (inactive)	24.1 µM (inactive)	22.8 µM (inactive)	29.5 µM (inactive)	–	–	17.9 µM (inactive)	37.8 µM (inactive)	35.5 µM (inactive)	> 54.1 µM (inactive)	> 100 µM (inactive)	28.8 µM (inactive)	77.3 µM (inactive)	33 µM (inactive)	> 100 µM (inactive)	25.5 µM (inactive)
Cc1cc(C)nc(NS(=O)(=O)c2ccc(NC(=O)c3cccc4cc5ccccc5nc34)cc2)n1	39.5 µM (inactive)	21.3 µM (inactive)	34.3 µM (inactive)	–	21.4 µM (inactive)	35.8 µM (inactive)	37.2 µM (inactive)	24.5 µM (inactive)	–	–	19.6 µM (inactive)	16.2 µM (inactive)	30.1 µM (inactive)	15.3 µM (inactive)	30.3 µM (inactive)	25.5 µM (inactive)	25.7 µM (inactive)	51.4 µM (inactive)	50.2 µM (inactive)	37.3 µM (inactive)
COc1ccc(-c2oc3cc(O)c(OC)c(O)c3c(=O)c2O)cc1 [BETULETOL]	6.08 µM (inactive)	7.11 µM (inactive)	3.33 µM (inactive)	8.36 µM (inactive)	5.16 µM (inactive)	17.1 µM (inactive)	39.7 µM (inactive)	12 µM (inactive)	4.44 µM (inactive)	13.7 µM (inactive)	1.85 µM (inactive)	8.61 µM (inactive)	6.08 µM (inactive)	8.32 µM (inactive)	> 51.8 µM (inactive)	6.14 µM (inactive)	10.1 µM (inactive)	10.4 µM (inactive)	19.5 µM (inactive)	54 µM (inactive)
